Test results: PMC10937199 (ESMO Open, 2024)
Read-outs that look alike come from different tables or passages of the source.

Key:
[1] = Peposertib plasma pharmacokinetics, Part A; format: in vivo, human; settings: Parts A and B
[2] = system: patients with advanced solid tumors; settings: Part A
[3] = system: patients with advanced solid tumors; assay: Safety; format: in vivo, human; settings: Part B

COc1ccc([C@@H](O)c2cc(-c3ncnc4cc(N5CCOCC5)ccc34)c(F)cc2Cl)nn1 [Peposertib]
3 (100.0) n (%): TEAE ([3]; 100 mg q.d., all grade) | TEAE, treatment related ([3]; 100 mg q.d., all grade) | TEAE ([3]; 150 mg q.d., all grade) | TEAE, treatment related ([3]; 150 mg q.d., all grade)
5 (26.3%): Peposertib-related TEAE: nausea ([3]; all dose levels)
5 (55.6) n (%): TEAE, peposertib related ([3]; 250 mg q.d., all grade) | TEAE, radiotherapy related ([3]; 250 mg q.d., all grade)
11.1%: Peposertib-related pneumonitis ([3]; 250 mg q.d.)
9 (100.0) n (%): TEAE ([3]; 250 mg q.d., all grade)
Some accumulation was observed: Accumulation ([1]; after q.d. and b.i.d. dosing)
2 (66.7) n (%): IRR ([3]; 100 mg q.d., all grade) | Serious TEAE ([3]; 100 mg q.d., all grade) | TEAE, peposertib related ([3]; 100 mg q.d., all grade) | Serious TEAE ([3]; 100 mg q.d., grade ≥3) | TEAE ([3]; 100 mg q.d., grade ≥3) | TEAE ([3]; 150 mg q.d., grade ≥3) | TEAE, treatment related ([3]; 150 mg q.d., grade ≥3)
3 (15.8%): Peposertib-related TEAE: vomiting ([3]; all dose levels)
7 (77.8) n (%): TEAE ([3]; 250 mg q.d., grade ≥3)
1 (25.0) n (%): DLT by preferred term: Pneumonitis ([2]; 300 mg b.i.d.) | DLTs per patient: 1 ([2]; 300 mg b.i.d.) | Patients with DLT ([2]; 300 mg b.i.d.) | DLT by preferred term: Acute kidney injury ([2]; 400 mg b.i.d.) | DLT by preferred term: Febrile neutropenia ([2]; 400 mg b.i.d.) | DLT by preferred term: Neutropenia ([2]; 400 mg b.i.d.) | DLT by preferred term: Neutrophil count decreased ([2]; 400 mg b.i.d.) | DLT by preferred term: Pyrexia ([2]; 400 mg b.i.d.) | DLT by preferred term: Rash ([2]; 400 mg b.i.d.) | DLTs per patient: 1 ([2]; 400 mg b.i.d.) | DLTs per patient: 2 ([2]; 400 mg b.i.d.) | DLTs per patient: ≥3 ([2]; 400 mg b.i.d.) | Immune-related AE ([3]; 200 mg q.d., all grade) | Serious TEAE ([3]; 200 mg q.d., all grade) | Serious TEAE ([3]; 200 mg q.d., grade ≥3) | TEAE ([3]; 200 mg q.d., grade ≥3)
2 (50.0) n (%): IRR ([3]; 200 mg q.d., all grade) | TEAE, peposertib related ([3]; 200 mg q.d., all grade)
1 (33.3) n (%): Serious TEAE, treatment related ([3]; 100 mg q.d., all grade) | TEAE, radiotherapy related ([3]; 100 mg q.d., all grade) | Serious TEAE, treatment related ([3]; 100 mg q.d., grade ≥3) | TEAE, treatment related ([3]; 100 mg q.d., grade ≥3) | IRR ([3]; 150 mg q.d., all grade) | Serious TEAE ([3]; 150 mg q.d., all grade) | Serious TEAE, treatment related ([3]; 150 mg q.d., all grade) | TEAE, peposertib related ([3]; 150 mg q.d., all grade) | TEAE, radiotherapy related ([3]; 150 mg q.d., all grade) | Serious TEAE ([3]; 150 mg q.d., grade ≥3) | Serious TEAE, treatment related ([3]; 150 mg q.d., grade ≥3) | TEAE, peposertib related ([3]; 150 mg q.d., grade ≥3) | TEAE, radiotherapy related ([3]; 150 mg q.d., grade ≥3)
6 (31.6%): Discontinuation of all study treatments due to AEs ([3]; all dose levels)
0 n (%): DLT by preferred term: Acute kidney injury ([2]; 100 mg b.i.d.) | DLT by preferred term: Febrile neutropenia ([2]; 100 mg b.i.d.) | DLT by preferred term: Neutropenia ([2]; 100 mg b.i.d.) | DLT by preferred term: Neutrophil count decreased ([2]; 100 mg b.i.d.) | DLT by preferred term: Pneumonitis ([2]; 100 mg b.i.d.) | DLT by preferred term: Pyrexia ([2]; 100 mg b.i.d.) | DLT by preferred term: Rash ([2]; 100 mg b.i.d.) | DLTs per patient: 1 ([2]; 100 mg b.i.d.) | DLTs per patient: 2 ([2]; 100 mg b.i.d.) | DLTs per patient: ≥3 ([2]; 100 mg b.i.d.) | Patients with DLT ([2]; 100 mg b.i.d.) | DLT by preferred term: Acute kidney injury ([2]; 200 mg b.i.d.) | DLT by preferred term: Febrile neutropenia ([2]; 200 mg b.i.d.) | DLT by preferred term: Neutropenia ([2]; 200 mg b.i.d.) | DLT by preferred term: Neutrophil count decreased ([2]; 200 mg b.i.d.) | DLT by preferred term: Pneumonitis ([2]; 200 mg b.i.d.) | DLT by preferred term: Pyrexia ([2]; 200 mg b.i.d.) | DLT by preferred term: Rash ([2]; 200 mg b.i.d.) | DLTs per patient: 1 ([2]; 200 mg b.i.d.) | DLTs per patient: 2 ([2]; 200 mg b.i.d.) | DLTs per patient: ≥3 ([2]; 200 mg b.i.d.) | Patients with DLT ([2]; 200 mg b.i.d.) | DLT by preferred term: Acute kidney injury ([2]; 250 mg b.i.d.) | DLT by preferred term: Febrile neutropenia ([2]; 250 mg b.i.d.) | DLT by preferred term: Neutropenia ([2]; 250 mg b.i.d.) | DLT by preferred term: Neutrophil count decreased ([2]; 250 mg b.i.d.) | DLT by preferred term: Pyrexia ([2]; 250 mg b.i.d.) | DLT by preferred term: Rash ([2]; 250 mg b.i.d.) | DLTs per patient: 2 ([2]; 250 mg b.i.d.) | DLTs per patient: ≥3 ([2]; 250 mg b.i.d.) | DLT by preferred term: Acute kidney injury ([2]; 300 mg b.i.d.) | DLT by preferred term: Febrile neutropenia ([2]; 300 mg b.i.d.) | DLT by preferred term: Neutropenia ([2]; 300 mg b.i.d.) | DLT by preferred term: Neutrophil count decreased ([2]; 300 mg b.i.d.) | DLT by preferred term: Pyrexia ([2]; 300 mg b.i.d.) | DLT by preferred term: Rash ([2]; 300 mg b.i.d.) | DLTs per patient: 2 ([2]; 300 mg b.i.d.) | DLTs per patient: ≥3 ([2]; 300 mg b.i.d.) | DLT by preferred term: Pneumonitis ([2]; 400 mg b.i.d.) | Immune-related AE ([3]; 100 mg q.d., all grade) | Serious TEAE, peposertib related ([3]; 100 mg q.d., all grade) | Serious TEAE, radiotherapy related ([3]; 100 mg q.d., all grade) | TEAEs leading to death ([3]; 100 mg q.d., all grade) | Treatment-related AE leading to death ([3]; 100 mg q.d., all grade) | IRR ([3]; 100 mg q.d., grade ≥3) | Immune-related AE ([3]; 100 mg q.d., grade ≥3) | Serious TEAE, peposertib related ([3]; 100 mg q.d., grade ≥3) | Serious TEAE, radiotherapy related ([3]; 100 mg q.d., grade ≥3) | TEAE, peposertib related ([3]; 100 mg q.d., grade ≥3) | TEAE, radiotherapy related ([3]; 100 mg q.d., grade ≥3) | TEAEs leading to death ([3]; 100 mg q.d., grade ≥3) | Treatment-related AE leading to death ([3]; 100 mg q.d., grade ≥3) | Immune-related AE ([3]; 150 mg q.d., all grade) | Serious TEAE, peposertib related ([3]; 150 mg q.d., all grade) | Serious TEAE, radiotherapy related ([3]; 150 mg q.d., all grade) | TEAEs leading to death ([3]; 150 mg q.d., all grade) | Treatment-related AE leading to death ([3]; 150 mg q.d., all grade) | IRR ([3]; 150 mg q.d., grade ≥3) | Immune-related AE ([3]; 150 mg q.d., grade ≥3) | Serious TEAE, peposertib related ([3]; 150 mg q.d., grade ≥3) | Serious TEAE, radiotherapy related ([3]; 150 mg q.d., grade ≥3) | TEAEs leading to death ([3]; 150 mg q.d., grade ≥3) | Treatment-related AE leading to death ([3]; 150 mg q.d., grade ≥3) | Serious TEAE, peposertib related ([3]; 200 mg q.d., all grade) | Serious TEAE, radiotherapy related ([3]; 200 mg q.d., all grade) | Serious TEAE, treatment related ([3]; 200 mg q.d., all grade) | TEAEs leading to death ([3]; 200 mg q.d., all grade) | Treatment-related AE leading to death ([3]; 200 mg q.d., all grade) | IRR ([3]; 200 mg q.d., grade ≥3) | Immune-related AE ([3]; 200 mg q.d., grade ≥3) | Serious TEAE, peposertib related ([3]; 200 mg q.d., grade ≥3) | Serious TEAE, radiotherapy related ([3]; 200 mg q.d., grade ≥3) | Serious TEAE, treatment related ([3]; 200 mg q.d., grade ≥3) | TEAE, peposertib related ([3]; 200 mg q.d., grade ≥3) | TEAE, radiotherapy related ([3]; 200 mg q.d., grade ≥3) | TEAE, treatment related ([3]; 200 mg q.d., grade ≥3) | TEAEs leading to death ([3]; 200 mg q.d., grade ≥3) | Treatment-related AE leading to death ([3]; 200 mg q.d., grade ≥3) | TEAEs leading to death ([3]; 250 mg q.d., all grade) | Treatment-related AE leading to death ([3]; 250 mg q.d., all grade) | TEAEs leading to death ([3]; 250 mg q.d., grade ≥3) | Treatment-related AE leading to death ([3]; 250 mg q.d., grade ≥3)
1 (50.0) n (%): DLT by preferred term: Pneumonitis ([2]; 250 mg b.i.d.) | DLTs per patient: 1 ([2]; 250 mg b.i.d.) | Patients with DLT ([2]; 250 mg b.i.d.)
3 (33.3) n (%): IRR ([3]; 250 mg q.d., all grade) | TEAE, treatment related ([3]; 250 mg q.d., grade ≥3)
2 (22.2) n (%): Immune-related AE ([3]; 250 mg q.d., all grade) | Serious TEAE, treatment related ([3]; 250 mg q.d., all grade) | Immune-related AE ([3]; 250 mg q.d., grade ≥3) | Serious TEAE, treatment related ([3]; 250 mg q.d., grade ≥3)
2/9: Serious TEAE: dehydration ([3]; 250 mg q.d.)
generally proportional to the dose: Peposertib exposure versus dose ([1]; across all dose levels after single or multiple (q.d. and b.i.d.) doses)
1 (11.1) n (%): Serious TEAE, peposertib related ([3]; 250 mg q.d., all grade) | Serious TEAE, radiotherapy related ([3]; 250 mg q.d., all grade) | IRR ([3]; 250 mg q.d., grade ≥3) | Serious TEAE, peposertib related ([3]; 250 mg q.d., grade ≥3) | Serious TEAE, radiotherapy related ([3]; 250 mg q.d., grade ≥3) | TEAE, peposertib related ([3]; 250 mg q.d., grade ≥3) | TEAE, radiotherapy related ([3]; 250 mg q.d., grade ≥3)
6 (66.7) n (%): Serious TEAE ([3]; 250 mg q.d., all grade) | Serious TEAE ([3]; 250 mg q.d., grade ≥3)
4 (100.0) n (%): TEAE ([3]; 200 mg q.d., all grade) | TEAE, treatment related ([3]; 200 mg q.d., all grade)
3 (75.0) n (%): Patients with DLT ([2]; 400 mg b.i.d.) | TEAE, radiotherapy related ([3]; 200 mg q.d., all grade)
8 (88.9) n (%): TEAE, treatment related ([3]; 250 mg q.d., all grade)
